Tested on: patients with fasting triglyceride levels ≥500 mg/dL
Assay: Lipoprotein particle concentration by NMR spectroscopy in the clinical study
Type: in vivo, human
Settings: for IDL particle concentration, median change from baseline / Large HDL particle concentration, median change from baseline / Large LDL particle concentration, median change from baseline / Large VLDL particle concentration, median change from baseline / Medium HDL particle concentration, median change from baseline / Medium VLDL particle concentration, median change from baseline / Small HDL particle concentration, median change from baseline / Small LDL particle concentration, median change from baseline / Small VLDL particle concentration, median change from baseline / Total HDL particle concentration, median change from baseline / Total LDL particle concentration, median change from baseline / Total VLDL particle concentration, median change from baseline: baseline to study end; for IDL particle concentration, end-of-treatment value (median) / Large HDL particle concentration, end-of-treatment value (median) / Large LDL particle concentration, end-of-treatment value (median) / Large VLDL particle concentration, end-of-treatment value (median) / Medium HDL particle concentration, end-of-treatment value (median) / Medium VLDL particle concentration, end-of-treatment value (median) / Small HDL particle concentration, end-of-treatment value (median) / Small LDL particle concentration, end-of-treatment value (median) / Small VLDL particle concentration, end-of-treatment value (median) / Total HDL particle concentration, end-of-treatment value (median) / Total LDL particle concentration, end-of-treatment value (median) / Total VLDL particle concentration, end-of-treatment value (median): study end
Procedure: Lipoprotein particle concentrations and sizes were measured with nuclear magnetic resonance spectroscopy in the above described clinical trial. Lipoprotein particle size and concentration parameters were obtained from fasting blood samples. Lipoprotein particle size and concentrations are measured by nuclear magnetic resonance (NMR) spectroscopy at LipoScience, Inc. (Raleigh, N.C.) using the LipoProfile-3 algorithm. VLDL, LDL, and HDL subclasses of different size were quantified from the amplitudes of their spectroscopically-distinct lipid methyl group NMR signals.
Concentrations of the following subclasses of lipoproteins were analyzed in this study: small LDL (18.0-20.5 nm), large LDL (20.5-23.0 nm), intermediate-density lipoprotein (IDL; 23.0-29.0 nm), large high-density lipoprotein (HDL; 9.4-14.0 nm), medium HDL (8.2-9.4 nm), small HDL (7.3-8.2 nm), large very-low-density lipoprotein (VLDL; >60 nm), medium VLDL (42-60 nm), and small VLDL (29-42 nm).
Subjects with missing baseline or Week 12 measurements, due to either missing laboratory samples or un-reportable values, were excluded from this analysis. The median difference of each lipoprotein particle variable (percent change from baseline) between each AMR101 treatment group and the placebo group was evaluated with a nonparametric test using the Hodges-Lehmann medians of the differences between treatment groups and the Wilcoxon rank-sum test (significance level 0.05). All statistical analyses were carried out using SAS 9.2 software.

[1] = 4 g/day vs placebo, Hodges-Lehmann median
[2] = 4 g/day vs placebo, stated as reduction

Structure (SMILES): CC/C=C\C/C=C\C/C=C\C/C=C\C/C=C\CCCC(=O)OCC [AMR101, ethyl eicosapentaenoate]
- IDL particle concentration, median change from baseline (2 g/day, n = 63): 0.8%
- Large HDL particle concentration, median change from baseline (2 g/day, n = 63): −1.6%
- Large LDL particle concentration, median change from baseline (2 g/day, n = 63): −20.9%
- Large VLDL particle concentration, median change from baseline (2 g/day, n = 63): −2.5%
- Medium HDL particle concentration, median change from baseline (2 g/day, n = 63): 3.9%
- Medium VLDL particle concentration, median change from baseline (2 g/day, n = 63): 18.8%
- Small HDL particle concentration, median change from baseline (2 g/day, n = 63): −3.2%
- Small LDL particle concentration, median change from baseline (2 g/day, n = 63): 9.5%
- Small VLDL particle concentration, median change from baseline (2 g/day, n = 63): 11.5%
- Total HDL particle concentration, median change from baseline (2 g/day, n = 63): −3.3%
- Total LDL particle concentration, median change from baseline (2 g/day, n = 63): 12.6%
- Total VLDL particle concentration, median change from baseline (2 g/day, n = 63): 13.1%
- IDL particle concentration, end-of-treatment value (median) (2 g/day, n = 63): 144.0 nmol/L
- Large HDL particle concentration, end-of-treatment value (median) (2 g/day, n = 63): 2.3 µmol/L
- Large LDL particle concentration, end-of-treatment value (median) (2 g/day, n = 63): 51.0 nmol/L
- Large VLDL particle concentration, end-of-treatment value (median) (2 g/day, n = 63): 29.9 nmol/L
- Medium HDL particle concentration, end-of-treatment value (median) (2 g/day, n = 63): 8.7 µmol/L
- Medium VLDL particle concentration, end-of-treatment value (median) (2 g/day, n = 63): 93.8 nmol/L
- Small HDL particle concentration, end-of-treatment value (median) (2 g/day, n = 63): 21.5 µmol/L
- Small LDL particle concentration, end-of-treatment value (median) (2 g/day, n = 63): 1100 nmol/L
- Small VLDL particle concentration, end-of-treatment value (median) (2 g/day, n = 63): 53.9 nmol/L
- Total HDL particle concentration, end-of-treatment value (median) (2 g/day, n = 63): 33.4 µmol/L
- Total LDL particle concentration, end-of-treatment value (median) (2 g/day, n = 63): 1464 nmol/L
- Total VLDL particle concentration, end-of-treatment value (median) (2 g/day, n = 63): 190.1 nmol/L
- Large VLDL particle concentration, placebo-adjusted median percent change from baseline [1]: −27.9%
- Small LDL particle concentration, placebo-adjusted median percent change from baseline [1]: −25.6%
- Small VLDL particle concentration, placebo-adjusted median percent change from baseline [1]: 5.3%
- Total HDL particle concentration, placebo-adjusted median percent change from baseline [1]: −7.4%
- Total LDL particle concentration, placebo-adjusted median percent change from baseline [1]: −16.3%
- Reduction of small LDL particle concentration [2]: 25.6%
- Reduction of total LDL particle concentration (IDL, small LDL and large LDL particles) [2]: 16.3%
- IDL particle concentration, median change from baseline (4 g/day, n = 61): 19.2%
- Large HDL particle concentration, median change from baseline (4 g/day, n = 61): 8.3%
- Large LDL particle concentration, median change from baseline (4 g/day, n = 61): −32.3%
- Large VLDL particle concentration, median change from baseline (4 g/day, n = 61): −24.5%
- Medium HDL particle concentration, median change from baseline (4 g/day, n = 61): −18.3%
- Medium VLDL particle concentration, median change from baseline (4 g/day, n = 61): 36.4%
- Small HDL particle concentration, median change from baseline (4 g/day, n = 61): −5.1%
- Small LDL particle concentration, median change from baseline (4 g/day, n = 61): −9.7%
- Small VLDL particle concentration, median change from baseline (4 g/day, n = 61): 4.3%
- Total HDL particle concentration, median change from baseline (4 g/day, n = 61): −7.1%
- Total LDL particle concentration, median change from baseline (4 g/day, n = 61): −0.1%
- Total VLDL particle concentration, median change from baseline (4 g/day, n = 61): 15.2%
- IDL particle concentration, end-of-treatment value (median) (4 g/day, n = 61): 185.0 nmol/L
- Large HDL particle concentration, end-of-treatment value (median) (4 g/day, n = 61): 2.3 µmol/L
- Large LDL particle concentration, end-of-treatment value (median) (4 g/day, n = 61): 64.0 nmol/L
- Large VLDL particle concentration, end-of-treatment value (median) (4 g/day, n = 61): 21.2 nmol/L
- Medium HDL particle concentration, end-of-treatment value (median) (4 g/day, n = 61): 8.4 µmol/L
- Medium VLDL particle concentration, end-of-treatment value (median) (4 g/day, n = 61): 106.8 nmol/L
- Small HDL particle concentration, end-of-treatment value (median) (4 g/day, n = 61): 21.6 µmol/L
- Small LDL particle concentration, end-of-treatment value (median) (4 g/day, n = 61): 998.0 nmol/L
- Small VLDL particle concentration, end-of-treatment value (median) (4 g/day, n = 61): 52.5 nmol/L
- Total HDL particle concentration, end-of-treatment value (median) (4 g/day, n = 61): 30.8 µmol/L
- Total LDL particle concentration, end-of-treatment value (median) (4 g/day, n = 61): 1419 nmol/L
- Total VLDL particle concentration, end-of-treatment value (median) (4 g/day, n = 61): 200.3 nmol/L
